Measured values: US20190274974A1, “Treatment of Pain Associated with Trigeminal Neuralgia” (priority 2011, published 2019)
Entries after “also recorded” stand apart in the source; their conditions may differ.

Tests used:
[1] = test system: CCI-ION rats; format: in vivo, rat; settings: rat, in vivo
Procedure: Rats are anaesthetized with sodium pentobarbital (50 mg/kg i.p.). Unilateral CCI-ION is performed under direct visual control using a Zeiss microscope (10-25×) essentially as described by Vos et al (Vos B P, Strassman A M, Maciewicz R J (1994), J. Neurosci. 14: 2708-2723). Briefly, the head is fixed in a Horsley-Clarke stereotaxic frame and a midline scalp incision is made, exposing skull and nasal bone. The edge of the orbit, formed by the maxillary, frontal, lacrimal, and zygomatic bones, is dissected free. The orbital contents are gently deflected to give access to the infraorbital nerve which is dissected free at its most rostral extent in the orbital cavity, just caudal to the infraorbital foramen. Only 5 mm of the nerve can be freed (Vos et al.), providing the space for placement of two chromic catgut (5-0) ligations tied loosely (with about 2 mm spacing) around it. […] Finally, scalp incision is closed using silk sutures (4-0). In sham-operated rats, the ION is exposed using the […] procedure, but is not ligated.
Mechanical sensitivity is determined with a graded series of eleven von Frey filaments (Bioseb, Bordeaux, France). The filaments produce a bending force of 0.07, 0.16, 0.40, 0.60, 1.00, 2.00, 4.00, 6.00, 8.00, 10.00 and 12.00 g, respectively. The stimuli are applied within the ION territory (vibrissae pad) three times at the nerve-injured side and then at the contralateral side for a total of 6 applications of each filament per rat, always beginning with the filament producing the lowest force. The von Frey filaments are applied at least 3 seconds after the rats returned to their initial resting state. For each session, the complete series of von Frey filaments is tested in increasing force order.
The latter responses represent the highest scores in the rank-ordered response scoring system initially described by Vos et al. The minimal force filament causing at least one among these responses (to at least 2 out of the 3 an each side) allows determination of the mechanical response threshold. The 12.00 g filament is the cut-off threshold (no tissue-injury occurs at this pressing force).
(§1) For studying the effects of acute treatment with tapentadol in CCI-ION rats, tapentadol (1 or 10 mg/kg i.p.) or its vehicle (0.9% NaCl i. p.) was injected acutely 14 days after surgery. Sham-operated rats were treated in parallel. Pressure threshold values to trigger nocifensive responses to von Frey filaments application onto the plantar surface of ipsilateral hindpaw were determined at various times after acute injection of tapentadol or saline. Cut-off was fixed at 12 g pressure.
(§2) For studying the effects of subchronic treatment with tapentadol in CCI-ION rats, starting on day 16 (Time=D) after surgery, they received i.p. injections of tapentadol (10 mg/kg, twice daily, at 10:00 AM and 6:00 PM) or saline (at the same day times as the drug) for four days. On the following day (day 20 after surgery), both tapentadol- and saline-pretreated CCI-SN rats were i.p. injected with Tapentadol (10 mg/kg; Time=0) and then subjected to von Frey filaments' test applied to ipsilateral hindpaw for determination of pressure threshold values at various times thereafter.
14 days after CCI-ION surgery, rats were injected with reboxetine (10 mg/kg i.p.) or its vehicle (0.9% NaCl) followed, 15 min later, by morphine (3 mg/kg s.c.) or its vehicle (0.9% NaCl) and subjected to von Frey filament tests for the following 4 hours. Sham-operated rats were treated in parallel.

[2] = test system: CCI-SN rats; format: in vivo, rat; settings: rat, in vivo
Procedure: Rats are anaesthetized with sodium pentobarbital (50 mg/kg i.p.). Unilateral CCI-SN is performed under direct visual control using a Zeiss microscope (10-25×) essentially as described by Bennett and Xie (G. J. Bennett et al., Pain, 33 (1988) 87-107).
Mechanical sensitivity is determined with a graded series of von Frey filaments (Bioseb, Bordeaux, France; bending force: 0.07-60.0 g). The stimuli are applied within the SN territory (midplantar surface of the left hindpaw) three times at the nerve-injured side (ipsilateral, left) and then at the contralateral side for a total of 6 applications of each filament per rat, always beginning with the filament producing the lowest force. The von Frey filaments are applied at least 3 seconds after the rats returned to their initial resting state. For each session, the complete series of von Frey filaments is tested in increasing force order. The minimal force filament causing a hindpaw withdrawal response allows determination of the mechanical response threshold. The 60 g filament is the cut-off threshold.
as §1, with “CCI-SN” for “CCI-ION”, “(1, 3 and” for “(1 or”, “60” for “12”
as §2, with “CCI-SN” for “CCI-ION”, “filaments'test” for “filaments' test”
In a second part of this study (B), unilateral chronic constriction injury to the sciatic nerve was performed two weeks before acute treatment with reboxetine (10 mg/kg i.p.), tapentadol (10 mg/kg i.p.) or saline (0.5 ml i.p./rat). Pressure threshold values were then determined at various times using von Frey filaments test applied to ipsilateral hindpaw.
Morphine (1, 3 and 10 mg/kg s.c.) or its vehicle (0.9% NaCl) was injected acutely 14 days after CCI-SN surgery. Sham-operated rats were treated in parallel. Pressure threshold values to trigger nocifensive responses to von Frey filaments application onto the plantar surface of ipsilateral hindpaw were determined at various times after acute injection of morphine or saline.
14 days after CCI-SN surgery, rats were injected with reboxetine (10 mg/kg i.p.) or its vehicle (0.9% NaCl) followed, 15 min later, by morphine (1 mg/kg s.c.) or its vehicle (0.9% NaCl) and subjected to von Frey filament tests for the following 4 hours. Sham-operated rats were treated in parallel.
The results are depicted in FIG. 11.

[3] = test system: BDNF-induced allodynia; experiment: Mechanical allodynia induced by intrathecal administration of BDNF in healthy rats (von Frey filaments test); format: in vivo, rat
Procedure: In a first part of this study, BDNF (0.3 ng in 25 μl of saline per rat) or saline (25 μl) was injected intrathecally in adult male rats slightly anesthetized with isoflurane (according to Mestre et al. (1994), J. Pharmacol. Toxicol. Meth., 32, 197-200), and animals were subjected to von Frey filaments test applied to hindpaws at various times thereafter.
In a second part of this study, tapentadol (3 or 10 mg/kg i.p.) or saline was administered to rats on the 7th day (Time=0 on abscissa) after intrathecal injection of BDNF (Time=C) as described above. Pressure threshold values were determined using von Frey filaments test applied to hindpaws.
In a first part of this study (A), reboxetine (10 mg/kg i.p.; mesylate, Ascent Scientific, Bristol, UK), tapentadol (10 mg/kg i.p.) or saline (0.5 ml i.p./rat) was injected on the 7th day after intrathecal administration of BDNF (0.3 ng in 25 μl of saline per rat). Pressure threshold values were determined at various times thereafter using von Frey filaments test applied to hindpaws.

[4] = test system: CCI-SN rats; settings: rat, in vivo; cited from earlier work
[5] = test system: CCI-ION rats; settings: rat, in vivo; cited from earlier work
[6] = test system: BDNF-induced allodynia; experiment: Mechanical allodynia induced by intrathecal administration of BDNF in healthy rats (von Frey filaments test); format: in vivo, rat; settings: BDNF 0.3 ng i.t.; up to 11 days; data not shown

**Q.** For CCOc1ccccc1OC(c1ccccc1)C1CNCCO1 (centres unmarked) [reboxetine, reference compound], which anti-allodynic effect [1] is on record?
**A.** completely inactive

**Q.** And the “anti-allodynic effect compared to tapentadol (10 mg/kg i.p.)” value [2]?
**A.** developed more slowly and was much less pronounced

**Q.** And the “increase in pressure threshold values” [2]?
**A.** only discrete increases

**Q.** What about the “reversal of CCI-SN-induced decrease in pressure threshold values” [2] of the same molecule?
**A.** significant but only partial reversal

**Q.** And the “maximal increase in pressure threshold values relative to that caused by 10 mg/kg i.p. of tapentadol” value ([3]; rat, in vivo)?
**A.** only one third

**Q.** And the “reversal of mechanical allodynia caused by intrathecal BDNF” value ([3]; rat, in vivo)?
**A.** significant but partial reversal

**Q.** And the “time at which the maximal increase in pressure threshold was reached” value ([3]; rat, in vivo)?
**A.** 45 min

**Q.** With CN1CC[C@]23c4c5ccc(O)c4O[C@H]2[C@@H](O)C=C[C@H]3[C@H]1C5 [morphine] as the molecule, how does the anti-allodynic effect [1] read?
**A.** only a discrete effect

**Q.** What about the “maximal increase in pressure threshold value as share of that determined in healthy intact rats” value [1] of the same molecule?
**A.** 20%

**Q.** What about the “anti-allodynic effect (pressure threshold to trigger hindpaw withdrawal)” value [2] of the same molecule?
**A.** strongly anti-allodynic

**Q.** And the “increase in pressure threshold values” [2]?
**A.** only discrete increases

**Q.** And the “persistence of full reversal” value [2]?
**A.** at least one hour

**Q.** And the “reversal of CCI-SN-induced mechanical allodynia” value [2]?
**A.** fully reversed; also recorded: not completely reversed

**Q.** What about the “time after injection at which full reversal was reached” value [2] of the same molecule?
**A.** 30 min

**Q.** And the “effect on mechanical allodynia generated by CCI-SN” value [4]?
**A.** significantly attenuate

**Q.** And the “effect on mechanical allodynia generated by CCI-ION” value [5]?
**A.** ineffective

**Q.** For NC1=N[C@H](O)[C@H]2[C@H]3O[C@]4(O)O[C@@H]([C@@H](O)[C@@]2(N1)[C@@H]4O)[C@]3(O)CO [tetrodotoxin], which “effect on mechanical allodynia generated by CCI-SN” value [4] is on record?
**A.** significantly attenuate

**Q.** And the “effect on mechanical allodynia generated by CCI-ION” value [5]?
**A.** ineffective

B1: BDNF: neurotrophic factor injected intrathecally (0.3 ng per rat) to induce mechanical allodynia (protein, UniProt P23560 19-247, looked up)
Neurotrophic factor BDNF …: APMKEANIRGQGGLAYPGVRTHGTLESVNGPKAGSRGLTSLADTFEHVIEELLDEDQKVRPNEENNKDADLYTSRVMLSSQVPLEPPLLFLLEEYKNYLDAANMSMRVRRHSDPARRGELSVCDSISEWVTAADKKTAVDMSGGTVTVLEKVPVSKGQLKQYFYETKCNPMGYTKEGCRGIDKRHWNSQCRTTQSYVRALTMDSKKRIGWRFIRIDTSCVCTLTIKRGR
**Q.** Which results are given for B1?
**A.** pressure threshold value within the vibrissal pad [6]: ~12 g; pressure threshold values, von Frey filaments applied within the vibrissal pad [6]: not significantly modified; hindpaw pressure threshold values from day 4 to day 8 after injection ([3]; BDNF 0.3 ng i.t.): as low as those previously determined two weeks after surgery in CCI-SN rats; hindpaw pressure threshold values on the 11th day relative to untreated healthy rats ([3]; BDNF 0.3 ng i.t.): only half; pressure threshold value to trigger hindpaw withdrawal after intrathecal injection ([3]; BDNF 0.3 ng i.t., single injection, healthy rats): progressive and long lasting decrease
